From patent US20060178307A1, “Modulation of NMDA receptor currents via orexin receptor and/or CRF receptor” (priority 2005, published 2006)
Where no end group is shown, it is not given here.

Key:
[1] = system: AMPAR/NMDAR ratio of EPSCs in VTA dopamine cells; assay: AMPAR/NMDAR ratio in VTA slices 24 hr after 5-day in vivo treatment; design: species or system rat; details: 5 days
Protocol: The next study investigated whether orexin signaling in the VTA is required for the long-term plasticity associated with the development of behavioral sensitization. Long-term synaptic plasticity at excitatory synapses on VTA neurons was examined 24 hr after a 5-day treatment of cocaine (15 mg/kg) or saline (0.9%), a time course shown to induce long-lasting locomotor sensitization to cocaine (Thomas et al., 2001), with or without the OXR1 antagonist, SB 334867 (10 mg/kg, FIG. 5). To assay for synaptic plasticity, the relative contributions of AMPARs and NMDARs to EPSCs recorded in VTA dopamine cells were compared. Consistent with the potentiation observed following acute and 7-day cocaine treatments (Borgland et al., 2004), 5-day treatment with cocaine potentiated the AMPAR/NMDAR ratio compared to saline controls (FIG. 5A, saline: 0.4±0.07, n=4; cocaine: 0.8±0.1, n=4, p<0.05). This potentiation of synaptic plasticity was blocked by 5-day treatment with the OXR1 antagonist, SB 334867, administered 15 min prior to cocaine or saline (FIG. 5A, saline+SB334867: 0.4±0.02, n=5 vs. cocaine+SB334867: 0.5±0.08, n=11, p>0.05). Since OXR1 antagonists block cocaine-mediated potentiation of the AMPAR/NMDAR ratio, orexin A may either facilitate cocaine-mediated synaptic plasticity or enhance synaptic transmission itself. A 5-min orexin A application was performed to determine whether this caused changes in AMPAR/NMDAR ratio either 15 min or 3-4 hours after application (FIG. 5B).
(§1) To calculate the AMPAR/NMDAR ratio, an average of 12 EPSCs at +40 mV was computed before and after application of the NMDAR blocker, AP5 (50 μM) for 5 min. NMDAR responses were calculated by subtracting the average response in the presence of AP5 (AMPAR only) from that seen in its absence; the peak of the AMPAR EPSC was divided by the peak of the NMDAR EPSC to yield an AMPAR/NMDAR ratio.
Male Sprague-Dawley Rats (P21-P30; Charles River, N.C.) were singly housed with food and water available ad libitum. A 12 hr light/dark cycle was used, with the lights on at 7:00 A.M. All cocaine injections and behavioral testing were performed during the light cycle for consecutive days. The four treatment groups consisted of rats given 5 daily i.p. injections of SB 334867 (10 mg/kg) 15 min preceding i.p. injection of cocaine (15 mg/kg) or saline (0.9% NaCl), or i.p. injections of vehicle (10% DMSO and 25% β-hydroxy cyclodextrin in saline) 15 min preceding i.p. injection of cocaine or saline. […] Locomotor activity was measured in 17″×17″ chambers lined with three 16-beam I/R arrays. […] Distance traveled was measured using Open Field Activity Software (Med Associates, Inc) and analyzed for estimates of locomotion based on the movement of a given distance and resting delay (movement in a given period of time).

cocaine reinforcement = assay: Operant cocaine self-administration, progressive ratio schedule; type: in vivo, rats; details: 10 mg/kg i.p. on 4th day of progressive ratio, n=12
Protocol: Rats were cannulated with an intra-venous cannula to their jugular vein. After one week to 10 days of recovery, the animals were trained to lever press for cocaine (0.5 mg/infusion, 2 second infusion) in Coulburn self-administration boxes. A tone and light above the active lever signalled during a press for cocaine and then a 20 second timeout followed the active lever press.
After 3-4 weeks of self-administration of cocaine (0.5 mg/infusion) ramping from fixed ratio of 1 lever press (FR1) to receive a reward to a stable fixed ratio of 5 lever presses to receive a reward (FR5) schedule, animals lever pressed for cocaine on a progressive ratio schedule for 4 days. On the second and third day, each animal received a vehicle injection (i.p.), and on the fourth day the animals received an injection (i.p.) of the OXR1 antagonist: SB334867, 10 mg/kg. As a control, orexin modulation of food self-administration was examined under the same paradigm. For food self-administration, animals were trained to an FR5 schedule for food pellets.

[2] = system: AMPAR/NMDAR ratio of EPSCs in VTA dopamine cells; assay: AMPAR/NMDAR ratio after 5-min bath application to VTA slices; type: cell-based, rat; details: orexin A 100 nM 5 min, n=8
Protocol: The next study investigated whether orexin signaling in the VTA is required for the long-term plasticity associated with the development of behavioral sensitization. Long-term synaptic plasticity at excitatory synapses on VTA neurons was examined 24 hr after a 5-day treatment of cocaine (15 mg/kg) or saline (0.9%), a time course shown to induce long-lasting locomotor sensitization to cocaine (Thomas et al., 2001), with or without the OXR1 antagonist, SB 334867 (10 mg/kg, FIG. 5). To assay for synaptic plasticity, the relative contributions of AMPARs and NMDARs to EPSCs recorded in VTA dopamine cells were compared. Consistent with the potentiation observed following acute and 7-day cocaine treatments (Borgland et al., 2004), 5-day treatment with cocaine potentiated the AMPAR/NMDAR ratio compared to saline controls (FIG. 5A, saline: 0.4±0.07, n=4; cocaine: 0.8±0.1, n=4, p<0.05). […]
as §1

AMPAR mEPSCs = assay: AMPAR-mediated miniature EPSCs (mEPSCs) in VTA neurons; type: cell-based, rat
Protocol: Next, to investigate whether AMPAR function and/or number was modified with orexin A treatment, AMPAR-mediated miniature EPSCs (mEPSCs) were examined (a standard method for determining the locus of synaptic change). Compared to untreated neurons, orexin A (100 nM) caused a significant increase in both amplitude (FIG. 6C,D,F) and frequency (FIG. 6C,E,G) 3-4 hours after application (24±1.6 pA; 2.4±0.5 Hz; n=7 vs control: 13±1.3 pA; 0.93±0.16 Hz; n=7; FIG. 6A), but not at 15 min (15±1.7 pA; 0.9±0.1 Hz; n=[…], FIG. 6B).
AMPAR mEPSCs were recorded in cells voltage-clamped at −70 mV in lidocaine (500 μM), APV (50 μM) and sucrose (100 mM). NMDAR mEPSCs were recorded at −40 mV in Mg2+-free external solution with lidocaine (500 μM), glycine (20 μM), and CNQX (10 μM). mEPSCs were collected using Clampex (Axon Instruments) and analyzed using Mini Analysis Program (Synaptosoft). Detection criteria were set at >10 pA, <1 ms rise-time, and <3 ms decay-time for AMPAR mEPSCs and >10 pA, <1 ms rise-time, and <10 ms decay-time for NMDAR mEPSCs. mEPSC traces were recorded while sampling every 10 μs, the images were filtered at 5 kHz. Averaged mEPSCs were constructed using Mini Analysis Program (Synaptosoft).

AMPAR-induced current = assay: Holding current change on bath-applied AMPA with cyclothiazide; type: cell-based, rat
[3] = 3-4 hours after orexin A 100 nM, n=7
[4] = 3-4 hours after orexin A, APV 50 μM applied 3 min prior and during orexin, n=7
[5] = 15 min after orexin A 100 nM, n=6

Molecule	effect on cocaine-induced potentiation of AMPAR/NMDAR ratio ([1]; 10 mg/kg i.p. 15 min prior to cocaine)	AMPAR/NMDAR ratio ([1]; cocaine 15 mg/kg + SB334867 10 mg/kg 15 min prior, n=11)	AMPAR/NMDAR ratio ([1]; saline + SB334867 10 mg/kg 15 min prior, n=5)	breakpoint (cocaine) (cocaine reinforcement)	natural log of active lever presses for cocaine (cocaine reinforcement)	raw active lever presses for cocaine (cocaine reinforcement)	total number of cocaine infusions (cocaine reinforcement)	AMPAR/NMDAR ratio ([2]; 15 min after treatment)	AMPAR/NMDAR ratio ([2]; after 3-4 hours)	AMPAR mEPSC amplitude (AMPAR mEPSCs; [3])	AMPAR mEPSC frequency (AMPAR mEPSCs; [3])	AMPAR mEPSC amplitude (AMPAR mEPSCs; [4])	AMPAR mEPSC frequency (AMPAR mEPSCs; [4])	AMPAR mEPSC amplitude (AMPAR mEPSCs; [5])	AMPAR mEPSC frequency (AMPAR mEPSCs; [5])	AMPAR-induced current (AMPAR-induced current; AMPA 2 μM 30 sec + cyclothiazide 100 μM, 15 min after orexin A 100 nM, n=5)	AMPAR-induced current (AMPAR-induced current; AMPA 2 μM + cyclothiazide, 3-4 hours after orexin A 100 nM, n=6)
Cc1nc2ccc(NC(=O)Nc3ccnc4cccnc34)cc2o1.Cl [SB 334867, 1-(2-methylbenzoxazol-6-yl)-3-[1,5]naphthyridin-4-yl urea hydrochloride]	blocked	0.5±0.08	0.4±0.02	reduced	reduced	reduced	decreased	–	–	–	–	–	–	–	–	–	–
orexin A: neuropeptide synthesized in neurons of the LH; orexin receptor agonist selective for the OXR1 receptor (QPLPDCCRQKTCSCRLYELLHGAGNHAAGILTL; ends and bridges not checked; cysteine pairing not given here; UniProt O43612 34-66, looked up)	–	–	–	–	–	–	–	0.29±0.04	0.75±0.1	24±1.6 pA	2.4±0.5 Hz	16±0.6 pA	1.6±0.3 Hz	15±1.7 pA	0.9±0.1 Hz	−243±79 pA	−367±63 pA
